Measured values taken from patent publication US11771662B2, “Analgesic formulation for control of pain in dogs” (Kansas State University Research Foundation, priority 2017, dated 2023).
Values joined by “and” are separate entries in the source; they are usually repeats but may differ in a detail not shown here. Equal values may be shown once.

What was measured:
[1] = Plasma methadone concentrations by liquid chromatography/triple quadrupole mass spectrometry (Example I); conditions: for concentration at 24 h / concentration at 0 h / concentration at 0.333 h / concentration at 0.667 h / concentration at 1 h / concentration at 2 h / concentration at 4 h / concentration at 6 h / concentration at 8 h / concentration at 12 h: dog, in vivo
[2] = Plasma methadone, fluconazole, naltrexone and naltrexone metabolite concentrations (Example IV)
Description: Anesthesia was monitored by licensed veterinary technicians.

[3] = humans; cited from earlier work
[4] = Plasma methadone, naltrexone and naltrexone metabolites, multiple oral doses (Example III); format: in vivo, dog; conditions: oral methadone/fluconazole/naltrexone formulation, both groups; throughout dosing and at least 12 hours after the last dose
Description: Twelve healthy Beagle dogs were divided into two groups of 6 each in a parallel study design. […] Group 1 simulated a patient dropped off the night before surgery, while Group 2 simulated a patient dropped off in the morning for same day early afternoon surgery. Rectal temperature was monitored as a marker of central opioid effects throughout the study and von Frey thresholds were obtained to assess the antinociceptive effects.

[5] = test system: dogs undergoing ovariohysterectomy; experiment: Adverse effects in ovariohysterectomy clinical trial (Example IV); conditions: injection group, 0.5 mg/kg SC q 4 h
[6] = test system: dogs undergoing ovariohysterectomy; experiment: Ease of IV catheter placement in ovariohysterectomy clinical trial (Example IV); conditions: 0.5 mg/kg SC q 4 h; with acepromazine 0.05 mg/kg SC

## CCC(=O)C(CC(C)N(C)C)(c1ccccc1)c1ccccc1 (racemic) [methadone]
[1]; 1 mg/kg, Plasma methadone concentration, individual dogs, methadone alone 1 mg/kg PO, 24 hr, Dog 1-6
  concentration at 24 h: < 0.5 ng/mL
[1]; Mean plasma methadone concentration, methadone 1 mg/kg PO 24 h after starting fluconazole 2.5 mg/kg PO q 12 h, 0 hr
  concentration at 0 h: 0 ng/mL
[1]; Mean plasma methadone concentration, methadone 1 mg/kg PO 24 h after starting fluconazole 2.5 mg/kg PO q 12 h, 0.333 hr
  concentration at 0.333 h: 0.8 ng/mL
[1]; Mean plasma methadone concentration, methadone 1 mg/kg PO 24 h after starting fluconazole 2.5 mg/kg PO q 12 h, 0.667 hr
  concentration at 0.667 h: 5.2 ng/mL
[1]; Mean plasma methadone concentration, methadone 1 mg/kg PO 24 h after starting fluconazole 2.5 mg/kg PO q 12 h, 1 hr
  concentration at 1 h: 16 ng/mL
[1]; Mean plasma methadone concentration, methadone 1 mg/kg PO 24 h after starting fluconazole 2.5 mg/kg PO q 12 h, 2 hr
  concentration at 2 h: 28.4 ng/mL
[1]; Mean plasma methadone concentration, methadone 1 mg/kg PO 24 h after starting fluconazole 2.5 mg/kg PO q 12 h, 4 hr
  concentration at 4 h: 23.3 ng/mL
[1]; Mean plasma methadone concentration, methadone 1 mg/kg PO 24 h after starting fluconazole 2.5 mg/kg PO q 12 h, 6 hr
  concentration at 6 h: 19.2 ng/mL
[1]; Mean plasma methadone concentration, methadone 1 mg/kg PO 24 h after starting fluconazole 2.5 mg/kg PO q 12 h, 8 hr
  concentration at 8 h: 15.9 ng/mL
[1]; Mean plasma methadone concentration, methadone 1 mg/kg PO 24 h after starting fluconazole 2.5 mg/kg PO q 12 h, 12 hr
  concentration at 12 h: 11.6 ng/mL
[1]; Mean plasma methadone concentration, methadone 1 mg/kg PO 24 h after starting fluconazole 2.5 mg/kg PO q 12 h, 24 hr
  concentration at 24 h: 5.6 ng/mL
[1]; Mean plasma methadone concentration, methadone 1 mg/kg PO 24 h after starting fluconazole 5 mg/kg PO q 12 h, 0 hr
  concentration at 0 h: 0 ng/mL
[1]; Mean plasma methadone concentration, methadone 1 mg/kg PO 24 h after starting fluconazole 5 mg/kg PO q 12 h, 0.333 hr
  concentration at 0.333 h: 14 ng/mL
[1]; Mean plasma methadone concentration, methadone 1 mg/kg PO 24 h after starting fluconazole 5 mg/kg PO q 12 h, 0.667 hr
  concentration at 0.667 h: 10.3 ng/mL
[1]; Mean plasma methadone concentration, methadone 1 mg/kg PO 24 h after starting fluconazole 5 mg/kg PO q 12 h, 1 hr
  concentration at 1 h: 24.3 ng/mL
[1]; Mean plasma methadone concentration, methadone 1 mg/kg PO 24 h after starting fluconazole 5 mg/kg PO q 12 h, 2 hr
  concentration at 2 h: 43.6 ng/mL
[1]; Mean plasma methadone concentration, methadone 1 mg/kg PO 24 h after starting fluconazole 5 mg/kg PO q 12 h, 4 hr
  concentration at 4 h: 42.5 ng/mL
[1]; Mean plasma methadone concentration, methadone 1 mg/kg PO 24 h after starting fluconazole 5 mg/kg PO q 12 h, 6 hr
  concentration at 6 h: 33.9 ng/mL
[1]; Mean plasma methadone concentration, methadone 1 mg/kg PO 24 h after starting fluconazole 5 mg/kg PO q 12 h, 8 hr
  concentration at 8 h: 27.6 ng/mL
[1]; Mean plasma methadone concentration, methadone 1 mg/kg PO 24 h after starting fluconazole 5 mg/kg PO q 12 h, 12 hr
  concentration at 12 h: 20.2 ng/mL
[1]; Mean plasma methadone concentration, methadone 1 mg/kg PO 24 h after starting fluconazole 5 mg/kg PO q 12 h, 24 hr
  concentration at 24 h: 8.3 ng/mL
[1]; Mean plasma methadone concentration, methadone 1 mg/kg PO 24 h after starting fluconazole 5 mg/kg PO q 24 h, 0 hr
  concentration at 0 h: 0 ng/mL
[1]; Mean plasma methadone concentration, methadone 1 mg/kg PO 24 h after starting fluconazole 5 mg/kg PO q 24 h, 0.333 hr
  concentration at 0.333 h: 5.8 ng/mL
[1]; Mean plasma methadone concentration, methadone 1 mg/kg PO 24 h after starting fluconazole 5 mg/kg PO q 24 h, 0.667 hr
  concentration at 0.667 h: 22.4 ng/mL
[1]; Mean plasma methadone concentration, methadone 1 mg/kg PO 24 h after starting fluconazole 5 mg/kg PO q 24 h, 1 hr
  concentration at 1 h: 33.7 ng/mL
[1]; Mean plasma methadone concentration, methadone 1 mg/kg PO 24 h after starting fluconazole 5 mg/kg PO q 24 h, 2 hr
  concentration at 2 h: 39.9 ng/mL
[1]; Mean plasma methadone concentration, methadone 1 mg/kg PO 24 h after starting fluconazole 5 mg/kg PO q 24 h, 4 hr
  concentration at 4 h: 31.4 ng/mL
[1]; Mean plasma methadone concentration, methadone 1 mg/kg PO 24 h after starting fluconazole 5 mg/kg PO q 24 h, 6 hr
  concentration at 6 h: 24 ng/mL
[1]; Mean plasma methadone concentration, methadone 1 mg/kg PO 24 h after starting fluconazole 5 mg/kg PO q 24 h, 8 hr
  concentration at 8 h: 18.4 ng/mL
[1]; Mean plasma methadone concentration, methadone 1 mg/kg PO 24 h after starting fluconazole 5 mg/kg PO q 24 h, 12 hr
  concentration at 12 h: 15.3 ng/mL
[1]; Mean plasma methadone concentration, methadone 1 mg/kg PO 24 h after starting fluconazole 5 mg/kg PO q 24 h, 24 hr
  concentration at 24 h: 5.5 ng/mL
[1]; methadone alone 1 mg/kg PO
  Plasma methadone concentration (not exceeded in any of 6 dogs): ≤ 2 ng/mL
[1]; methadone alone 1 mg/kg PO, 0 hr, Dog 1-6
  Plasma methadone concentration, individual dogs: <0.5 ng/mL
[1]; methadone alone 1 mg/kg PO, 0.333 hr, Dog 1-6
  Plasma methadone concentration, individual dogs: <0.5 ng/mL (3×) and 1.3 ng/mL (2×) and 1.9 ng/mL
[1]; methadone alone 1 mg/kg PO, 0.667 hr, Dog 1-6
  Plasma methadone concentration, individual dogs: 1.9 ng/mL and 1.2 ng/mL and 0.7 ng/mL and 1.3 ng/mL and 1.5 ng/mL and 1.0 ng/mL
[1]; methadone alone 1 mg/kg PO, 1 hr, Dog 1-6
  Plasma methadone concentration, individual dogs: 1.2 ng/mL (2×) and 1.5 ng/mL and 1.4 ng/mL and 1.1 ng/mL
[1]; methadone alone 1 mg/kg PO, 2 hr, Dog 1-6
  Plasma methadone concentration, individual dogs: <0.5 ng/mL (2×) and 0.8 ng/mL and 1.3 ng/mL and 0.6 ng/mL and 0.9 ng/mL
[1]; methadone alone 1 mg/kg PO, 4 hr, Dog 1-6
  Plasma methadone concentration, individual dogs: <0.5 ng/mL (2×) and 1.0 ng/mL and 0.5 ng/mL and 0.7 ng/mL
[1]; methadone alone 1 mg/kg PO, 6 hr, Dog 1-6
  Plasma methadone concentration, individual dogs: <0.5 ng/mL
[1]; methadone alone 1 mg/kg PO, 8 hr, Dog 1-6
  Plasma methadone concentration, individual dogs: <0.5 ng/mL
[1]; methadone alone 1 mg/kg PO, 12 hr, Dog 1-6
  Plasma methadone concentration, individual dogs: <0.5 ng/mL
[1]; methadone alone 1 mg/kg PO, 24 hr, Dog 1-6
  Plasma methadone concentration, individual dogs: <0.5 ng/mL
[2]; injectable methadone 0.5 mg/kg SC q 4 h, Day 1 4:00 PM
  Plasma methadone concentrations median (range): 14.4 (5.4-32.9)^1
[2]; injectable methadone 0.5 mg/kg SC q 4 h, Day 1 8:00 PM
  Plasma methadone concentrations median (range): 22.4 (14.8-47.7)
[2]; injectable methadone 0.5 mg/kg SC q 4 h, Day 2 5:00 PM
  Plasma methadone concentrations median (range): 2.0 (0-10)^1,2
[2]; oral methadone/fluconazole/naltrexone formulation 0.5 mg/kg (methadone) PO q 12 h, Day 1 4:00 PM
  Plasma methadone concentrations median (range): 20.6 (2.6-30.3)^2
[2]; oral methadone/fluconazole/naltrexone formulation 0.5 mg/kg (methadone) PO q 12 h, Day 1 8:00 PM
  Plasma methadone concentrations median (range): 17.6 (2.0-29.8)^1
[2]; oral methadone/fluconazole/naltrexone formulation 0.5 mg/kg (methadone) PO q 12 h, Day 2 5:00 PM
  Plasma methadone concentrations median (range): 14.1 (3.6-41.7)^2,3
[2]; oral methadone/fluconazole/naltrexone formulation 1 mg/kg (methadone) PO q 12 h, Day 1 4:00 PM
  Plasma methadone concentrations median (range): 36.2 (3.2-67.7)^1,2
[2]; oral methadone/fluconazole/naltrexone formulation 1 mg/kg (methadone) PO q 12 h, Day 1 8:00 PM
  Plasma methadone concentrations median (range): 27.7 (2.1-54.8)^1
[2]; oral methadone/fluconazole/naltrexone formulation 1 mg/kg (methadone) PO q 12 h, Day 2 5:00 PM
  Plasma methadone concentrations median (range): 46.7 (1.4-98.5)^1,3
[3]
  Increase in methadone drug exposure when fluconazole is administered with methadone: 30-35%
[4]
  Mean plasma concentration of methadone: exceeded 10 ng/mL
[5]
  Perioperative nausea or vomiting (dogs affected/dogs in group): 2/13
[6]
  IV Catheter placement: A. Unable to restrain the dog (number of dogs): 0
  IV Catheter placement: B. The dog was restrained, but was difficult (number of dogs): 2
  IV Catheter placement: C. The dog was restrained with little effort (number of dogs): 8
  IV Catheter placement: D. The dog was unable to sit sternal and had to be supported (number of dogs): 3
